Reference: PubChem BioAssay (NCI)
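Dose response: 5 concentrations. Exposure: 48 h. Format: 96-well plates. Endpoint: linear interpolation; highest concentration if not reached. Definition used: TGI = concentration required for complete inhibition of growth.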

Legend:
Test in all cases: DTP human tumour cell line panel, 48 h
786-0 renal = tested on: 786-0 renal
A498 renal = tested on: A498 renal
A549 NSCLC = tested on: A549 NSCLC
ACHN renal = tested on: ACHN renal
BT-549 breast = tested on: BT-549 breast
CAKI-1 renal = tested on: CAKI-1 renal
DU-145 prostate = tested on: DU-145 prostate
EKVX NSCLC = tested on: EKVX NSCLC
HCC-2998 colon = tested on: HCC-2998 colon
HCT-116 colon = tested on: HCT-116 colon
HCT-15 colon = tested on: HCT-15 colon
HOP-62 NSCLC = tested on: HOP-62 NSCLC
HOP-92 NSCLC = tested on: HOP-92 NSCLC
HS 578T breast = tested on: HS 578T breast
HT29 colon = tested on: HT29 colon
IGROV1 ovarian = tested on: IGROV1 ovarian
K-562 leukemia = tested on: K-562 leukemia
KM12 colon = tested on: KM12 colon
LOX IMVI melanoma = tested on: LOX IMVI melanoma
M14 melanoma = tested on: M14 melanoma
MALME-3M melanoma = tested on: MALME-3M melanoma
MDA-MB-231 breast = tested on: MDA-MB-231 breast
MDA-MB-435 = tested on: MDA-MB-435
MDA-N = tested on: MDA-N
MOLT-4 leukemia = tested on: MOLT-4 leukemia
NCI-H226 lung = tested on: NCI-H226 lung
NCI-H23 lung = tested on: NCI-H23 lung
NCI-H460 lung = tested on: NCI-H460 lung
NCI-H522 lung = tested on: NCI-H522 lung
NCI/ADR-RES ovarian = tested on: NCI/ADR-RES ovarian
OVCAR-3 ovarian = tested on: OVCAR-3 ovarian
OVCAR-4 ovarian = tested on: OVCAR-4 ovarian
OVCAR-5 ovarian = tested on: OVCAR-5 ovarian
OVCAR-8 ovarian = tested on: OVCAR-8 ovarian
PC-3 prostate = tested on: PC-3 prostate
RXF 393 renal = tested on: RXF 393 renal
SF-268 CNS = tested on: SF-268 CNS
SF-295 CNS = tested on: SF-295 CNS
SK-MEL-2 melanoma = tested on: SK-MEL-2 melanoma
SK-MEL-28 melanoma = tested on: SK-MEL-28 melanoma
SK-MEL-5 melanoma = tested on: SK-MEL-5 melanoma
SN12C renal = tested on: SN12C renal
SNB-19 CNS = tested on: SNB-19 CNS
SNB-75 CNS = tested on: SNB-75 CNS
SR leukemia = tested on: SR leukemia
SW-620 colon = tested on: SW-620 colon
T-47D breast = tested on: T-47D breast
TK-10 renal = tested on: TK-10 renal
U251 CNS = tested on: U251 CNS
UACC-257 melanoma = tested on: UACC-257 melanoma
UACC-62 melanoma = tested on: UACC-62 melanoma
UO-31 renal = tested on: UO-31 renal
CCRF-CEM leukemia = tested on: CCRF-CEM leukemia
COLO 205 colon = tested on: COLO 205 colon
HL-60(TB) leukemia = tested on: HL-60(TB) leukemia
MCF7 breast = tested on: MCF7 breast
RPMI-8226 leukemia = tested on: RPMI-8226 leukemia
SF-539 CNS = tested on: SF-539 CNS
SK-OV-3 ovarian = tested on: SK-OV-3 ovarian

Structure (SMILES): CC(CCc1nc2ccccc2s1)(c1ccc(O)cc1)c1ccc(O)cc1
- TGI (786-0 renal): 30.2 µM
- TGI (A498 renal): 36.5 µM
- TGI (A549 NSCLC): 38.2 µM
- TGI (ACHN renal): 33.2 µM
- TGI (BT-549 breast): 39.7 µM
- TGI (CAKI-1 renal): 45 µM
- TGI (DU-145 prostate): 31.6 µM
- TGI (EKVX NSCLC): 32.3 µM
- TGI (HCC-2998 colon): 33.8 µM
- TGI (HCT-116 colon): 34 µM
- TGI (HCT-15 colon): 35.4 µM
- TGI (HOP-62 NSCLC): 31.5 µM
- TGI (HOP-92 NSCLC): 36.7 µM
- TGI (HS 578T breast): 52.9 µM
- TGI (HT29 colon): 38.4 µM
- TGI (IGROV1 ovarian): 28.3 µM
- TGI (K-562 leukemia): 47.2 µM
- TGI (KM12 colon): 33.8 µM
- TGI (LOX IMVI melanoma): 29.4 µM
- TGI (M14 melanoma): 33.4 µM
- TGI (MALME-3M melanoma): 31 µM
- TGI (MDA-MB-231 breast): 32 µM
- TGI (MDA-MB-435): 30.8 µM
- TGI (MDA-N): 31.1 µM
- TGI (MOLT-4 leukemia): 42.9 µM
- TGI (NCI-H226 lung): 41.1 µM
- TGI (NCI-H23 lung): 32 µM
- TGI (NCI-H460 lung): 30 µM
- TGI (NCI-H522 lung): 32 µM
- TGI (NCI/ADR-RES ovarian): 57.2 µM
- TGI (OVCAR-3 ovarian): 31.3 µM
- TGI (OVCAR-4 ovarian): 37 µM
- TGI (OVCAR-5 ovarian): 33.1 µM
- TGI (OVCAR-8 ovarian): 39.6 µM
- TGI (PC-3 prostate): 27.9 µM
- TGI (RXF 393 renal): 33.2 µM
- TGI (SF-268 CNS): 40.5 µM
- TGI (SF-295 CNS): 28.9 µM
- TGI (SK-MEL-2 melanoma): 31.4 µM
- TGI (SK-MEL-28 melanoma): 33.7 µM
- TGI (SK-MEL-5 melanoma): 33.1 µM
- TGI (SN12C renal): 33.6 µM
- TGI (SNB-19 CNS): 34.8 µM
- TGI (SNB-75 CNS): 34 µM
- TGI (SR leukemia): 53.3 µM
- TGI (SW-620 colon): 43.5 µM
- TGI (T-47D breast): 95.2 µM
- TGI (TK-10 renal): 34.1 µM
- TGI (U251 CNS): 27.7 µM
- TGI (UACC-257 melanoma): 28.7 µM
- TGI (UACC-62 melanoma): 29.4 µM
- TGI (UO-31 renal): 31.3 µM

Structure (SMILES): COc1cc(S(=O)(=O)Nc2ccc(-c3csc(N4C(=O)C(Cl)C4c4ccccc4O)n3)cc2)ccc1Cl (stereo unspecified)
- TGI (786-0 renal): > 100 µM
- TGI (A498 renal): 0.948 µM
- TGI (A549 NSCLC): > 100 µM
- TGI (ACHN renal): > 100 µM
- TGI (BT-549 breast): > 100 µM
- TGI (CAKI-1 renal): > 100 µM
- TGI (CCRF-CEM leukemia): 9.13 µM
- TGI (COLO 205 colon): 90.1 µM
- TGI (DU-145 prostate): 66.6 µM
- TGI (EKVX NSCLC): > 100 µM
- TGI (HCC-2998 colon): 38.5 µM
- TGI (HCT-116 colon): > 100 µM
- TGI (HCT-15 colon): > 100 µM
- TGI (HL-60(TB) leukemia): 49.7 µM
- TGI (HOP-62 NSCLC): > 100 µM
- TGI (HOP-92 NSCLC): 91.9 µM
- TGI (HS 578T breast): > 100 µM
- TGI (HT29 colon): > 100 µM
- TGI (IGROV1 ovarian): 56.3 µM
- TGI (K-562 leukemia): > 100 µM
- TGI (KM12 colon): > 100 µM
- TGI (LOX IMVI melanoma): 3.56 µM
- TGI (M14 melanoma): > 100 µM
- TGI (MALME-3M melanoma): > 100 µM
- TGI (MCF7 breast): 54.2 µM
- TGI (MDA-MB-435): > 100 µM
- TGI (MDA-N): > 100 µM
- TGI (MOLT-4 leukemia): 41.7 µM
- TGI (NCI-H226 lung): > 100 µM
- TGI (NCI-H23 lung): 80.5 µM
- TGI (NCI-H460 lung): > 100 µM
- TGI (NCI-H522 lung): 3.48 µM
- TGI (NCI/ADR-RES ovarian): > 100 µM
- TGI (OVCAR-3 ovarian): > 100 µM
- TGI (OVCAR-4 ovarian): 70 µM
- TGI (OVCAR-5 ovarian): > 100 µM
- TGI (OVCAR-8 ovarian): > 100 µM
- TGI (PC-3 prostate): > 100 µM
- TGI (RPMI-8226 leukemia): 83.9 µM
- TGI (RXF 393 renal): 52.6 µM
- TGI (SF-268 CNS): > 100 µM
- TGI (SF-295 CNS): > 100 µM
- TGI (SF-539 CNS): > 100 µM
- TGI (SK-MEL-2 melanoma): > 100 µM
- TGI (SK-MEL-28 melanoma): > 100 µM
- TGI (SK-MEL-5 melanoma): > 100 µM
- TGI (SK-OV-3 ovarian): > 100 µM
- TGI (SN12C renal): > 100 µM
- TGI (SNB-19 CNS): > 100 µM
- TGI (SNB-75 CNS): > 100 µM
- TGI (SR leukemia): 52 µM
- TGI (SW-620 colon): > 100 µM
- TGI (T-47D breast): 29.5 µM
- TGI (UACC-257 melanoma): 88.6 µM
- TGI (UACC-62 melanoma): 59.1 µM
- TGI (UO-31 renal): > 100 µM

Structure (SMILES): S=C1C(=Nc2ccccc2)N(c2ccccc2)/C(=N\c2cccc[n+]2Cc2ccccc2)N1c1ccccc1
- TGI (786-0 renal): 30 µM
- TGI (A549 NSCLC): 52.7 µM
- TGI (ACHN renal): 45 µM
- TGI (BT-549 breast): 27.4 µM
- TGI (CAKI-1 renal): 55.7 µM
- TGI (COLO 205 colon): 34.9 µM
- TGI (DU-145 prostate): > 100 µM
- TGI (EKVX NSCLC): 53.8 µM
- TGI (HCC-2998 colon): 27.2 µM
- TGI (HCT-116 colon): 23.9 µM
- TGI (HCT-15 colon): 45.7 µM
- TGI (HOP-62 NSCLC): 29.8 µM
- TGI (HOP-92 NSCLC): 41.9 µM
- TGI (HS 578T breast): > 100 µM
- TGI (HT29 colon): 43 µM
- TGI (IGROV1 ovarian): 54.9 µM
- TGI (K-562 leukemia): > 100 µM
- TGI (KM12 colon): 32 µM
- TGI (M14 melanoma): 27.5 µM
- TGI (MALME-3M melanoma): 28.2 µM
- TGI (MCF7 breast): 42.8 µM
- TGI (MDA-MB-231 breast): 31.3 µM
- TGI (MDA-MB-435): 22.3 µM
- TGI (MDA-N): 25 µM
- TGI (MOLT-4 leukemia): > 100 µM
- TGI (NCI-H226 lung): 40.4 µM
- TGI (NCI-H23 lung): 35.4 µM
- TGI (NCI-H460 lung): 50 µM
- TGI (NCI-H522 lung): 31.2 µM
- TGI (NCI/ADR-RES ovarian): > 100 µM
- TGI (OVCAR-3 ovarian): 54.3 µM
- TGI (OVCAR-5 ovarian): 32.7 µM
- TGI (OVCAR-8 ovarian): 38.7 µM
- TGI (PC-3 prostate): 29.9 µM
- TGI (RPMI-8226 leukemia): 87.2 µM
- TGI (RXF 393 renal): 27.3 µM
- TGI (SF-268 CNS): 48.4 µM
- TGI (SF-295 CNS): 27.4 µM
- TGI (SF-539 CNS): 34 µM
- TGI (SK-MEL-2 melanoma): 55.8 µM
- TGI (SK-MEL-28 melanoma): 37.3 µM
- TGI (SK-MEL-5 melanoma): 26.7 µM
- TGI (SK-OV-3 ovarian): 42.6 µM
- TGI (SN12C renal): 35.4 µM
- TGI (SNB-19 CNS): 34.8 µM
- TGI (SNB-75 CNS): 25.5 µM
- TGI (SR leukemia): 79.7 µM
- TGI (SW-620 colon): 35.7 µM
- TGI (T-47D breast): 61.7 µM
- TGI (TK-10 renal): 99.8 µM
- TGI (UACC-257 melanoma): 31.6 µM
- TGI (UACC-62 melanoma): 25 µM
- TGI (UO-31 renal): 42.8 µM
